The source of these data is ChEMBL document CHEMBL4020733, “Approaches towards the development of chimeric DPP4/ACE inhibitors for treating metabolic syndrome” (Bioorg Med Chem Lett, 2017).

The target in data set [1] is T1, Angiotensin-converting enzyme (Rattus norvegicus, UniProt P47820).
T1 sequence (P47820 whole entry): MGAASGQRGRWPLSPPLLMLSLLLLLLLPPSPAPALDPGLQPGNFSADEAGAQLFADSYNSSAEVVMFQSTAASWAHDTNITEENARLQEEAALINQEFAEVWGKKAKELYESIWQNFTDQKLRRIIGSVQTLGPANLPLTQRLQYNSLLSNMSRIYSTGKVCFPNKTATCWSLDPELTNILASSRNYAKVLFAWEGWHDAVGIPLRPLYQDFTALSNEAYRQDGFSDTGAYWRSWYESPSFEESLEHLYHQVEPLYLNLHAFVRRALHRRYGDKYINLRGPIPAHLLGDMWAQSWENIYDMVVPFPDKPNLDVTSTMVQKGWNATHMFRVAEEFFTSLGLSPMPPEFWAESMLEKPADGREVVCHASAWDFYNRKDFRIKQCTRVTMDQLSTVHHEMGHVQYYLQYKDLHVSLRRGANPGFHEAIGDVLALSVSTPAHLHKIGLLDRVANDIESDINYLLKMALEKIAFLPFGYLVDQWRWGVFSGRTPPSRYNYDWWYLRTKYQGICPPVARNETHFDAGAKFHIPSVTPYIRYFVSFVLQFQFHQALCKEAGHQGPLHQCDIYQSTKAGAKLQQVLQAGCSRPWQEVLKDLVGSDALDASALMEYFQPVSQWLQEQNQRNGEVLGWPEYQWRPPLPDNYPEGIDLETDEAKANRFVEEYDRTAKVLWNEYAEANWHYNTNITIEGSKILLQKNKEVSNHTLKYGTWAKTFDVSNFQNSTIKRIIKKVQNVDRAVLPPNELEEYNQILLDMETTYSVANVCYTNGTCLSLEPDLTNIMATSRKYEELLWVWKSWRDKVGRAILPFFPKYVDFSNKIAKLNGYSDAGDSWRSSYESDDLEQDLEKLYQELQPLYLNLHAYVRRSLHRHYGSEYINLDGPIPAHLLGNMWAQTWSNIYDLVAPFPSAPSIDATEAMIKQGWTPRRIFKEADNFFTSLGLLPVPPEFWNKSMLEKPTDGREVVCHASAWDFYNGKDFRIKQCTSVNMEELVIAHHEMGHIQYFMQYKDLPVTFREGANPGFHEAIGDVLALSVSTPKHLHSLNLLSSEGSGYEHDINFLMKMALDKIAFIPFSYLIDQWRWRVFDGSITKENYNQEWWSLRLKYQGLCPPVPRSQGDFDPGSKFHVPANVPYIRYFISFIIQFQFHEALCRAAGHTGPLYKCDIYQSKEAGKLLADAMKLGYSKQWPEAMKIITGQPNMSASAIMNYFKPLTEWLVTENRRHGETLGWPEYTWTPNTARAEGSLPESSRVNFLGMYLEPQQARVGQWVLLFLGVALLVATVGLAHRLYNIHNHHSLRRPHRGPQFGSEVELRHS
Kind of data set: Inhibition of Wistar rat plasma ACE.

Another data set concerns the target T2, Cytochrome P450 1A2 (Homo sapiens, UniProt P05177).
T2 sequence (P05177 whole entry): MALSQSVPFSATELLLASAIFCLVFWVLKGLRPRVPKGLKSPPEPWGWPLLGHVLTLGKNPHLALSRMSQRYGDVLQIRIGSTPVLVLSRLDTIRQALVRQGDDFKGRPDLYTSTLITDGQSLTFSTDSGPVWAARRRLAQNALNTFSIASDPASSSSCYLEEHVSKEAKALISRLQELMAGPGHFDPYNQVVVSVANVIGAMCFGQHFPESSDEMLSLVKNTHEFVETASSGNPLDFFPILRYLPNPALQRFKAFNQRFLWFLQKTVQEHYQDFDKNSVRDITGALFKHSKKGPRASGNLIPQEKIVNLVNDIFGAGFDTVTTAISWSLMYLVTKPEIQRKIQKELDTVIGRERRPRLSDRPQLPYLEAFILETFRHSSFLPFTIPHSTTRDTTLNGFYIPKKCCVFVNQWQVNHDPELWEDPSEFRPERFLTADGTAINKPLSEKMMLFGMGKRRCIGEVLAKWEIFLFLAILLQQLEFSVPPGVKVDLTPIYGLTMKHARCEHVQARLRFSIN
Kind of data set: Inhibition of CYP1A2 (unknown origin) up to 10 uM. It is filed as ADME.

The test system of data set [2] is Liver. Kind of data set: Stability in human liver microsomes. It is filed as ADME, microsome.
The next data set addresses Cytochrome P450 2D6 (Homo sapiens, UniProt P10635). Kind of data set: Inhibition of CYP2D6 (unknown origin) up to 10 uM. The class given is ADME.
A short description of data set [3]: Plasma protein binding in human. The conditions noted are these: read-out: PPB (converted). It is filed as ADME, cell-free.
A further data set has as its target Neprilysin (Homo sapiens, UniProt P08473). Kind of data set: Inhibition of NEP (unknown origin).
Data set [4] is described as follows: Tmax in Wistar rat plasma at 30 mg/kg, po. It is filed as ADME, organism-based.
The subject of data set [5] is Liver. Nature of the data set: Stability in rat liver microsomes. It is filed as ADME, microsome.
The target in another data set is Dipeptidyl peptidase 9 (Homo sapiens, UniProt Q86TI2). Kind of data set: Inhibition of DPP9 (unknown origin).
Chain of Dipeptidyl peptidase 9 (Q86TI2 whole entry): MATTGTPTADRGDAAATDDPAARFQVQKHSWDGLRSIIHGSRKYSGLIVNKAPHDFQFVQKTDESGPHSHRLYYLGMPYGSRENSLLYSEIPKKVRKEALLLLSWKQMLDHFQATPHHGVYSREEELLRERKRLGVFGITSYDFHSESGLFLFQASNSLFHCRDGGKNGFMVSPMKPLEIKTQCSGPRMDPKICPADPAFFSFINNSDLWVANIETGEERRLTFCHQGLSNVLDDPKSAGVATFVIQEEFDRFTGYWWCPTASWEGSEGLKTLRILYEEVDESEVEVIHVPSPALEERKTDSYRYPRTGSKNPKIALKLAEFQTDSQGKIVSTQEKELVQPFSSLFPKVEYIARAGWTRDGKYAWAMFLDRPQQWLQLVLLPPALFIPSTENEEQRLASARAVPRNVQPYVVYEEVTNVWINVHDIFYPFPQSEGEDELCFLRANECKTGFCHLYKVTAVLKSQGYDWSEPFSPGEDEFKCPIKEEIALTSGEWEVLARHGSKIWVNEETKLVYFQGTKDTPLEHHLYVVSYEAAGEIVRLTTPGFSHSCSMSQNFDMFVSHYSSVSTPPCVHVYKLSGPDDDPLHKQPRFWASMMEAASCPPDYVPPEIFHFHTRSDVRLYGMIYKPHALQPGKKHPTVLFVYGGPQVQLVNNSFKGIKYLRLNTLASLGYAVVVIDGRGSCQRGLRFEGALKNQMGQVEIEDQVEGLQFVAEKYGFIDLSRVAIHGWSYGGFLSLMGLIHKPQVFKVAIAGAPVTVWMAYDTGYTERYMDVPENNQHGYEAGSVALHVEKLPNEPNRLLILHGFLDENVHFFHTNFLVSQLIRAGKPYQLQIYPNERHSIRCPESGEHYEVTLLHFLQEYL
The next data set deals with Dipeptidyl peptidase 4 (Homo sapiens, UniProt P27487). Kind of data set: Inhibition of human plasma DPP4.
Data set [6] is described as follows: Plasma protein binding in rat. It is filed as ADME, cell-free. The conditions noted are these: read-out: PPB (converted).
The target in another data set is Cytochrome P450 2C9 (Homo sapiens, UniProt P11712). Kind of data set: Inhibition of CYP2C9 (unknown origin) up to 10 uM. The class given is ADME.
Chain of Cytochrome P450 2C9 (P11712 whole entry): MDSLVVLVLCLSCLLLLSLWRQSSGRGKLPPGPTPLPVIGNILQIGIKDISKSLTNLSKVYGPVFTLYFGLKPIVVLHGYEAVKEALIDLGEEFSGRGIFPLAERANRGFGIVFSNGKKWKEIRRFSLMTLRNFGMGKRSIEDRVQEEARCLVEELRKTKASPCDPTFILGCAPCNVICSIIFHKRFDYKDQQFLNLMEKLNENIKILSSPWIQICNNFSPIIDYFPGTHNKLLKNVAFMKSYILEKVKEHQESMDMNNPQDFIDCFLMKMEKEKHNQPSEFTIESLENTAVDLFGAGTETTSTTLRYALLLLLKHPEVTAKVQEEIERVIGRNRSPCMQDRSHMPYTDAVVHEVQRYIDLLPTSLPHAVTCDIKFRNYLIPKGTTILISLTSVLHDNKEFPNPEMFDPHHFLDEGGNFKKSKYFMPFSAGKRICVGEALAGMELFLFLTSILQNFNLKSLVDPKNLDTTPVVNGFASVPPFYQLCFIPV
The next data set concerns the target Aminopeptidase N (Homo sapiens, UniProt P15144). Nature of the data set: Inhibition of APN (unknown origin).
The target in another data set is Dipeptidyl peptidase 2 (Homo sapiens, UniProt Q9UHL4). Nature of the data set: Inhibition of DPP2 (unknown origin).
Data set [7] is described as follows: Inhibition of APP (unknown origin). Also noted: species or system Homo sapiens.
Data set [8] concerns Liver. Nature of the data set: Stability in dog liver microsomes. The class given is ADME, Canis lupus familiaris, microsome.
The subject of data set [9] is Liver. Kind of data set: Stability in mouse liver microsomes. It is filed as ADME, microsome.
The target of another data set is Dipeptidyl peptidase 8 (Homo sapiens, UniProt Q6V1X1). Kind of data set: Inhibition of DPP8 (unknown origin).
Data set [10] can be described thus: Plasma protein binding in mouse. It is filed as ADME, cell-free. The conditions noted are these: read-out: PPB (converted).
Data set [11] in a line: AUC (0 to infinity) in Wistar rat plasma at 30 mg/kg, po. The class given is ADME, organism-based. Set-up: dose 30 mg/kg, time infinity, route oral.
The next data set addresses Cytochrome P450 3A4 (Homo sapiens, UniProt P08684). Kind of data set: Inhibition of CYP3A4 (unknown origin) up to 10 uM. The class given is ADME.
Data set [12] addresses Angiotensin-converting enzyme (Homo sapiens, UniProt P12821). Nature of the data set: Inhibition of human plasma ACE.
Data set [13] in a line: Cmax in Wistar rat plasma at 30 mg/kg, po. It is filed as ADME, organism-based. Also noted: dose 30 mg/kg, route oral.

Chain of Angiotensin-converting enzyme (Homo sapiens, UniProt P12821) (P12821 whole entry): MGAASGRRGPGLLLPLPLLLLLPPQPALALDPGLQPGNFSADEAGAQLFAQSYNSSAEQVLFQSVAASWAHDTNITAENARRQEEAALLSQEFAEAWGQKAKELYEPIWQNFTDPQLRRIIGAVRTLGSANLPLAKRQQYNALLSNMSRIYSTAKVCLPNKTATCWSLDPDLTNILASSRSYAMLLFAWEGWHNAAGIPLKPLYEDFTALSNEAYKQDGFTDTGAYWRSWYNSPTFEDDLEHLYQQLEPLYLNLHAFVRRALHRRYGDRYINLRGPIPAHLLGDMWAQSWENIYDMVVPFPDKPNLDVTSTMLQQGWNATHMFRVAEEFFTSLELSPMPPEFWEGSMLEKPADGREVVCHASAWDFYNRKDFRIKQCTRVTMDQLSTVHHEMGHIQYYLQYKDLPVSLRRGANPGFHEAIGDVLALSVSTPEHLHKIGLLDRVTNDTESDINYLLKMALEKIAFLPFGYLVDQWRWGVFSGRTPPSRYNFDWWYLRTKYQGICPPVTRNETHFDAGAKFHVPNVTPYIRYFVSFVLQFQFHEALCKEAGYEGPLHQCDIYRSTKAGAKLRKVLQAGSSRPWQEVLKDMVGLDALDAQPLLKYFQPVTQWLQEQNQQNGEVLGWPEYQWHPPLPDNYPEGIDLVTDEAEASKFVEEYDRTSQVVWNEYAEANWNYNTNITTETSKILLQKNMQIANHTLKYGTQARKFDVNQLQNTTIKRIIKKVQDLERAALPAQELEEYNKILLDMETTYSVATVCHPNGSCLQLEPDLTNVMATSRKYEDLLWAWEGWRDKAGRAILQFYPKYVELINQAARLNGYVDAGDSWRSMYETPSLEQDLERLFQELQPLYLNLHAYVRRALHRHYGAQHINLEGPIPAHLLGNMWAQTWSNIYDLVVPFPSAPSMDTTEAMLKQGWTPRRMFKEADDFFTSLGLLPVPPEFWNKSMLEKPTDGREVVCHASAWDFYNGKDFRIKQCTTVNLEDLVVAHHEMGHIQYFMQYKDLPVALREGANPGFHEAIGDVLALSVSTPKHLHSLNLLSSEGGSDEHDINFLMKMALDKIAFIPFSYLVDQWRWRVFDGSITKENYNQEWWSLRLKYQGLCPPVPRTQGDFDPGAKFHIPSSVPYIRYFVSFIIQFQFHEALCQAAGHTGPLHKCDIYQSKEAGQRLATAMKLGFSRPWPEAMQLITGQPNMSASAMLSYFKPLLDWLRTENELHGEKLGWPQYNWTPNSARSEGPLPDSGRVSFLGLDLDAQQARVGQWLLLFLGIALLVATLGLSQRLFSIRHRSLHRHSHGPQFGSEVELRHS
Chain of Aminopeptidase N (P15144 whole entry): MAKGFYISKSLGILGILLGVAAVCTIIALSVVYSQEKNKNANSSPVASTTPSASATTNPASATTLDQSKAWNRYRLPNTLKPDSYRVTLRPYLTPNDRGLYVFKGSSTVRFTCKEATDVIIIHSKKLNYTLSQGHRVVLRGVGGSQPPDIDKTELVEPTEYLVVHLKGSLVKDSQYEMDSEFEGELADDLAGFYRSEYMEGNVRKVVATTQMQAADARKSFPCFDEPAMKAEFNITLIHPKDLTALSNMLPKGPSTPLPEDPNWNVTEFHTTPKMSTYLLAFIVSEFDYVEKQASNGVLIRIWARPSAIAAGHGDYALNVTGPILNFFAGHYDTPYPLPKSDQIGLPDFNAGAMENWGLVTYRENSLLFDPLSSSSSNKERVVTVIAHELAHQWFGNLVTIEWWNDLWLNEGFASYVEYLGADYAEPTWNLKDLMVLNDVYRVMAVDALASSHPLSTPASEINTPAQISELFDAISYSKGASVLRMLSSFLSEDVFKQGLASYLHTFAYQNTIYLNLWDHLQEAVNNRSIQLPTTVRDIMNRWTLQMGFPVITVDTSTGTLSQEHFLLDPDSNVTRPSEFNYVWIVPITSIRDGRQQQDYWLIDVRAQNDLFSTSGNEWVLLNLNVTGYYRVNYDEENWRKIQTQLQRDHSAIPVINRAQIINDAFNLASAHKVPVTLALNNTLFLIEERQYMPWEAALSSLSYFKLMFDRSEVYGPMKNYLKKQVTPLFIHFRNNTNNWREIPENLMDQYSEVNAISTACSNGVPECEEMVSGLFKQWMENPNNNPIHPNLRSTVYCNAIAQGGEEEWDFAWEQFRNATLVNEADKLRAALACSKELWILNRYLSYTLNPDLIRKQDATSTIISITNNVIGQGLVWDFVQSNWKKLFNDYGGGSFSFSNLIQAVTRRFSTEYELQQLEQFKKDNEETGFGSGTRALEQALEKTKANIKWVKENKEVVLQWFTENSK
Chain of Neprilysin (P08473 whole entry): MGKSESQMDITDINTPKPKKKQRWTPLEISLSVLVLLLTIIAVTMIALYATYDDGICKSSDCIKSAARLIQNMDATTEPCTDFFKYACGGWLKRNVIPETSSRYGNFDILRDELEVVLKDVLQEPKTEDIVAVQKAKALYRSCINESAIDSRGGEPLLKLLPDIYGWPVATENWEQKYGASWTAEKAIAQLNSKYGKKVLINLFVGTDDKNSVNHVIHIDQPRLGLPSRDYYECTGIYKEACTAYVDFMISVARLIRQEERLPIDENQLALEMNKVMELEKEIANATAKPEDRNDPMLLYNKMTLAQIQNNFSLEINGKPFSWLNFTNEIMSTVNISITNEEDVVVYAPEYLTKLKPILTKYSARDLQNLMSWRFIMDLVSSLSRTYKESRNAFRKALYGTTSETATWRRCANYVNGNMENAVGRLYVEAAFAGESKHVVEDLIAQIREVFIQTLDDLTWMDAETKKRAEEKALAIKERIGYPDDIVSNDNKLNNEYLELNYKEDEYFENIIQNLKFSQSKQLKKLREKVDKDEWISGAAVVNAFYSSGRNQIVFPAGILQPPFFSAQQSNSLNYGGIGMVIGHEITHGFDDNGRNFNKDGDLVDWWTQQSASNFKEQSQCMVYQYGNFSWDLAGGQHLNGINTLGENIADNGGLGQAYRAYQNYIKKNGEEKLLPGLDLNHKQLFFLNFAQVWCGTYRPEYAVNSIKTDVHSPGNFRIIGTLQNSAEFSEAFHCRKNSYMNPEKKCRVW
Chain of Cytochrome P450 3A4 (P08684 whole entry): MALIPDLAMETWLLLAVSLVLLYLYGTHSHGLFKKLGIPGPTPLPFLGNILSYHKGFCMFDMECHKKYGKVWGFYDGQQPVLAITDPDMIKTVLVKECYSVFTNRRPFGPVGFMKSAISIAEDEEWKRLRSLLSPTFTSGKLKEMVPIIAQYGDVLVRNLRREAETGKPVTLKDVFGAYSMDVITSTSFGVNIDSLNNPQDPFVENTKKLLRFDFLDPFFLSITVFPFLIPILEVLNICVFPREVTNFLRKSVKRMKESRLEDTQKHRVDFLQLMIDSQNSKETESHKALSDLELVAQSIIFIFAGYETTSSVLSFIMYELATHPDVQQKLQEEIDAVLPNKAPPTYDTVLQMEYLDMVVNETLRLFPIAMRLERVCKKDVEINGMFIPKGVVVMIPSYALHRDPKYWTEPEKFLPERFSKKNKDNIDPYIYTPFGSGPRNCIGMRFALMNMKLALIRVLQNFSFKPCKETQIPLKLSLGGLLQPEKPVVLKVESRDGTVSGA

On to `C[C@H](N[C@@H](CCc1ccccc1)C(=O)O)C(=O)N1C[C@@H](NC(=O)C[C@H](N)Cc2cc(F)c(F)cc2F)C[C@H]1C(=O)O`, for which the IC50 in [1] is 0.334 µM; on Neprilysin, over 100 µM; against Dipeptidyl peptidase 9 it was 44 µM; against Dipeptidyl peptidase 4, 0.255 µM; against Aminopeptidase N, over 100 µM; at Dipeptidyl peptidase 2 it was over 100 µM. Besides, the IC50 in data set [7] was over 100 µM; at Dipeptidyl peptidase 8, 27 µM; in [12], 0.158 µM. The “inhibition (INH)” value against Cytochrome P450 1A2, at Cytochrome P450 2D6, at Cytochrome P450 2C9 and against Cytochrome P450 3A4 was “Not Active” throughout. Also, the Stability result in the data set with Liver [2], in the data set on Liver [5], in the data set on Liver [8] and in the data set on Liver [9] was “Stable” each time. Besides, the fraction unbound in [3] is 0.707; in [6], 0.58; in data set [10], 0.51. Further, in [4], the Tmax worked out at 1.5 h. The compound further had an AUC(0-inf) in [11] of 1170 ng·h/mL. The compound also came in with a Cmax in [13] of 260 ng/mL.

Turning to `CCC[C@H](N[C@@H](CCc1ccccc1)C(=O)O)C(=O)N1C[C@@H](NC(=O)C[C@H](N)Cc2cc(F)c(F)cc2F)C[C@H]1C(=O)O`, the IC50 in data set [1] is 0.893 µM; against Neprilysin, over 100 µM; on Dipeptidyl peptidase 9 it was over 100 µM; against Dipeptidyl peptidase 4, 0.067 µM; on Aminopeptidase N, over 100 µM; on Dipeptidyl peptidase 2 it was over 100 µM. Moreover, the IC50 in data set [7] was over 100 µM; against Dipeptidyl peptidase 8 it was 57 µM; in data set [12] it was 0.051 µM. Further, the “inhibition (INH)” value against Cytochrome P450 1A2, on Cytochrome P450 2D6, on Cytochrome P450 2C9 and against Cytochrome P450 3A4 was “Not Active” throughout. In addition, the Stability result with Liver [2], in the data set with Liver [5], in the data set on Liver [8] and in the data set on Liver [9] was “Stable” throughout. In addition, the fraction unbound in data set [3] was 0.597; in data set [6] it was 0.564; in data set [10], 0.015. Moreover, the Tmax in data set [4] amounted to 3.3 h. For the same compound, the AUC(0-inf) in data set [11] was determined as 23500 ng·h/mL. This compound yielded a Cmax in [13] of 2500 ng/mL.

Turning to `CC[C@H](N[C@@H](CCc1ccccc1)C(=O)O)C(=O)N1C[C@@H](NC(=O)C[C@H](N)Cc2cc(F)c(F)cc2F)C[C@H]1C(=O)O`, the IC50 was 0.024 µM in [1]; over 100 µM on Neprilysin; over 100 µM at Dipeptidyl peptidase 9; 0.057 µM at Dipeptidyl peptidase 4; over 100 µM against Aminopeptidase N; over 100 µM against Dipeptidyl peptidase 2. Besides, the IC50 is over 100 µM in [7], 69 µM on Dipeptidyl peptidase 8 and 0.0086 to 0.0089 µM in data set [12]. The “inhibition (INH)” value at Cytochrome P450 1A2, against Cytochrome P450 2D6, at Cytochrome P450 2C9 and on Cytochrome P450 3A4 was “Not Active” throughout. For the same compound, the Stability entry in the data set with Liver [2], with Liver [5], in the data set with Liver [8] and in the data set on Liver [9] was “Stable” in each case. The fraction unbound in [3] was 0.636; in data set [6] it was 0.403; in data set [10], 0.129. Besides, the Tmax in [4] was determined as 1.67 h. Further, the AUC(0-inf) in data set [11] was 2860 ng·h/mL. Moreover, the Cmax in [13] was 550 ng/mL.

Regarding `CCCC[C@H](N[C@@H](CCc1ccccc1)C(=O)O)C(=O)N1C[C@@H](NC(=O)C[C@H](N)Cc2cc(F)c(F)cc2F)C[C@H]1C(=O)O`, the 50% inhibitory concentration (IC50) is 2.8 µM in [1]; over 100 µM on Neprilysin; over 100 µM on Dipeptidyl peptidase 9; 0.102 µM against Dipeptidyl peptidase 4; over 100 µM at Aminopeptidase N; over 100 µM against Dipeptidyl peptidase 2. In addition, the IC50 is over 100 µM in data set [7], over 100 µM against Dipeptidyl peptidase 8 and 0.279 µM in data set [12]. In addition, the “inhibition (INH)” value against Cytochrome P450 1A2, against Cytochrome P450 2D6, against Cytochrome P450 2C9 and at Cytochrome P450 3A4 was “Not Active” throughout. In addition, the Stability result in the data set with Liver [2], with Liver [5], in the data set on Liver [8] and with Liver [9] was “Stable” in each case. The fraction unbound was 0.327 in data set [3], 0.583 in [6] and 0.014 in data set [10]. For the same compound, the Tmax in data set [4] was determined as 2 h. Also, in [11], the AUC(0-inf) stood at 16800 ng·h/mL. This compound also had a Cmax in data set [13] of 1330 ng/mL.
